Measurements from the supplement of paper PMC10307832.

Columns and labels:
Assay in all cases: relative viability (nuclei count vs DMSO), 5 days (fraction); higher = more cells survive
Pemetrexed + Pictilisib = compound: Nc1nc2[nH]cc(CCc3ccc(C(=O)N[C@@H](CCC(=O)O)C(=O)O)cc3)c2c(=O)[nH]1 [Pemetrexed] + CS(=O)(=O)N1CCN(Cc2cc3nc(-c4cccc5[nH]ncc45)nc(N4CCOCC4)c3s2)CC1 [Pictilisib] (partner 1 µM)
Summary of the method: (§1)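 After 5 days of treatment, lung cancer cells in 1536-well plates were fixed and stained in a single step (final 0.05% Triton X-100, 1% formaldehyde, 1 ug/ml Hoechst) and their nuclei counted on 4× images. Treatment had been applied by pin tool the day after seeding as one drug alone or as a fixed anchor-drug dose with five library-drug doses (not always all listed) in √10 steps. Relative viability is the nuclei count of treated wells divided by that of vehicle wells, and values are medians of duplicate plates.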

Idelalisib + Phenformin = compound: CC[C@H](Nc1ncnc2[nH]cnc12)c1nc2cccc(F)c2c(=O)n1-c1ccccc1 [Idelalisib] + N=C(N)NC(=N)NCCc1ccccc1 [Phenformin] (partner 250 µM)
Summary of the method: as §1

Pemetrexed + Alpelisib = compound: Nc1nc2[nH]cc(CCc3ccc(C(=O)N[C@@H](CCC(=O)O)C(=O)O)cc3)c2c(=O)[nH]1 [Pemetrexed] + Cc1nc(NC(=O)N2CCC[C@H]2C(N)=O)sc1-c1ccnc(C(C)(C)C(F)(F)F)c1 [Alpelisib] (partner 2 µM)
Summary of the method: as §1

Pemetrexed + Trametinib = compound: Nc1nc2[nH]cc(CCc3ccc(C(=O)N[C@@H](CCC(=O)O)C(=O)O)cc3)c2c(=O)[nH]1 [Pemetrexed] + CC(=O)Nc1cccc(-n2c(=O)n(C3CC3)c(=O)c3c(Nc4ccc(I)cc4F)n(C)c(=O)c(C)c32)c1 [Trametinib] (partner 0.02 µM)
Summary of the method: as §1

Cell Line: UMC-11
- relative viability (Pemetrexed + Pictilisib; first compound 0.002 µM): 0.809
- relative viability (Pemetrexed + Pictilisib; first compound 0.006325 µM): 0.807
- relative viability (Pemetrexed + Pictilisib; first compound 0.02 µM): 0.837
- relative viability (Pemetrexed + Pictilisib; first compound 0.06325 µM): 0.781
- relative viability (Pemetrexed + Pictilisib; first compound 0.2 µM): 0.556
- relative viability (Idelalisib + Phenformin; first compound 0.04 µM): 0.323
- relative viability (Idelalisib + Phenformin; first compound 0.1265 µM): 0.327
- relative viability (Idelalisib + Phenformin; first compound 0.4 µM): 0.303
- relative viability (Idelalisib + Phenformin; first compound 1.265 µM): 0.321
- relative viability (Idelalisib + Phenformin; first compound 4 µM): 0.318
- relative viability (Pemetrexed + Alpelisib; first compound 0.002 µM): 1.04
- relative viability (Pemetrexed + Alpelisib; first compound 0.006325 µM): 1.03
- relative viability (Pemetrexed + Alpelisib; first compound 0.02 µM): 1
- relative viability (Pemetrexed + Alpelisib; first compound 0.06325 µM): 1.03
- relative viability (Pemetrexed + Alpelisib; first compound 0.2 µM): 0.829
- relative viability (Pemetrexed + Trametinib; first compound 0.002 µM): 0.659
- relative viability (Pemetrexed + Trametinib; first compound 0.006325 µM): 0.663
- relative viability (Pemetrexed + Trametinib; first compound 0.02 µM): 0.819
- relative viability (Pemetrexed + Trametinib; first compound 0.06325 µM): 0.655
- relative viability (Pemetrexed + Trametinib; first compound 0.2 µM): 0.619
